Test results reported in PubChem BioAssay (NCI).
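Cells were grown in 96-well plates and exposed to each compound for 48 hours at five concentrations; endpoints were interpolated linearly between bracketing concentrations, or set to the highest concentration if not reached. GI50 is the concentration that inhibits growth by half. TGI denotes the concentration required for complete inhibition of growth.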

What was measured:
Test in all cases: growth of human tumour cells (NCI), 48 h
786-0 renal = tested on: 786-0 renal
A498 renal = tested on: A498 renal
A549 NSCLC = tested on: A549 NSCLC
ACHN renal = tested on: ACHN renal
BT-549 breast = tested on: BT-549 breast
CAKI-1 renal = tested on: CAKI-1 renal
CCRF-CEM leukemia = tested on: CCRF-CEM leukemia
COLO 205 colon = tested on: COLO 205 colon
DU-145 prostate = tested on: DU-145 prostate
EKVX NSCLC = tested on: EKVX NSCLC
HCC-2998 colon = tested on: HCC-2998 colon
HCT-116 colon = tested on: HCT-116 colon
HCT-15 colon = tested on: HCT-15 colon
HL-60(TB) leukemia = tested on: HL-60(TB) leukemia
HOP-62 NSCLC = tested on: HOP-62 NSCLC
HOP-92 NSCLC = tested on: HOP-92 NSCLC
HS 578T breast = tested on: HS 578T breast
HT29 colon = tested on: HT29 colon
IGROV1 ovarian = tested on: IGROV1 ovarian
K-562 leukemia = tested on: K-562 leukemia
KM12 colon = tested on: KM12 colon
LOX IMVI melanoma = tested on: LOX IMVI melanoma
M14 melanoma = tested on: M14 melanoma
MALME-3M melanoma = tested on: MALME-3M melanoma
MCF7 breast = tested on: MCF7 breast
MDA-MB-231 breast = tested on: MDA-MB-231 breast
MDA-MB-435 = tested on: MDA-MB-435
MOLT-4 leukemia = tested on: MOLT-4 leukemia
NCI-H226 lung = tested on: NCI-H226 lung
NCI-H23 lung = tested on: NCI-H23 lung
NCI-H460 lung = tested on: NCI-H460 lung
NCI-H522 lung = tested on: NCI-H522 lung
NCI/ADR-RES ovarian = tested on: NCI/ADR-RES ovarian
OVCAR-3 ovarian = tested on: OVCAR-3 ovarian
OVCAR-4 ovarian = tested on: OVCAR-4 ovarian
OVCAR-5 ovarian = tested on: OVCAR-5 ovarian
OVCAR-8 ovarian = tested on: OVCAR-8 ovarian
PC-3 prostate = tested on: PC-3 prostate
RPMI-8226 leukemia = tested on: RPMI-8226 leukemia
RXF 393 renal = tested on: RXF 393 renal
SF-268 CNS = tested on: SF-268 CNS
SF-295 CNS = tested on: SF-295 CNS
SF-539 CNS = tested on: SF-539 CNS
SK-MEL-2 melanoma = tested on: SK-MEL-2 melanoma
SK-MEL-28 melanoma = tested on: SK-MEL-28 melanoma
SK-MEL-5 melanoma = tested on: SK-MEL-5 melanoma
SK-OV-3 ovarian = tested on: SK-OV-3 ovarian
SN12C renal = tested on: SN12C renal
SNB-19 CNS = tested on: SNB-19 CNS
SNB-75 CNS = tested on: SNB-75 CNS
SR leukemia = tested on: SR leukemia
SW-620 colon = tested on: SW-620 colon
T-47D breast = tested on: T-47D breast
TK-10 renal = tested on: TK-10 renal
U251 CNS = tested on: U251 CNS
UACC-257 melanoma = tested on: UACC-257 melanoma
UACC-62 melanoma = tested on: UACC-62 melanoma
UO-31 renal = tested on: UO-31 renal

With `COc1ccc(-c2nn(-c3cccc(Cl)c3)cc2-c2c(C#N)c(=O)n3[nH]c(-c4ccc(C)cc4)nc3c2C#N)cc1` the GI50 (786-0 renal) was 1.39 µM, the TGI (786-0 renal) was 5.93 µM and the GI50 (A498 renal) was 0.575 µM. For the same compound, the TGI (A498 renal) was 7.63 µM, the GI50 (A549 NSCLC) was 1.85 µM and the TGI (A549 NSCLC) was 12.4 µM. The GI50 (ACHN renal) was 2.41 µM, the TGI (ACHN renal) was 12.6 µM and the GI50 (BT-549 breast) was 3.79 µM. The TGI (BT-549 breast) was 14.8 µM, the GI50 (CAKI-1 renal) was 2.46 µM and the TGI (CAKI-1 renal) was 10.4 µM. For the same compound, the GI50 (CCRF-CEM leukemia) was 1.23 µM, the TGI (CCRF-CEM leukemia) was > 50 µM and the GI50 (COLO 205 colon) was 2.32 µM. The TGI (COLO 205 colon) was 8.15 µM, the GI50 (DU-145 prostate) was 2.74 µM and the TGI (DU-145 prostate) was 21.9 µM. It also gave a GI50 (EKVX NSCLC) of 1.62 µM, a TGI (EKVX NSCLC) of 9.2 µM and a GI50 (HCC-2998 colon) of 5.04 µM. The TGI (HCC-2998 colon) was 10.8 µM, the GI50 (HCT-116 colon) was 1.24 µM and the TGI (HCT-116 colon) was 6 µM. The GI50 (HCT-15 colon) was 9.95 µM, the TGI (HCT-15 colon) was > 50 µM and the GI50 (HL-60(TB) leukemia) was 8.33 µM. It also gave a TGI (HL-60(TB) leukemia) of 29.6 µM, a GI50 (HOP-62 NSCLC) of 0.884 µM and a TGI (HOP-62 NSCLC) of 2.19 µM. The GI50 (HOP-92 NSCLC) was 0.723 µM, the TGI (HOP-92 NSCLC) was 4.88 µM and the GI50 (HS 578T breast) was 1.23 µM. The TGI (HS 578T breast) was 15 µM, the GI50 (HT29 colon) was 1.49 µM and the TGI (HT29 colon) was > 50 µM. For the same compound, the GI50 (IGROV1 ovarian) was 3.51 µM, the TGI (IGROV1 ovarian) was 11.3 µM and the GI50 (K-562 leukemia) was 1.43 µM. The TGI (K-562 leukemia) was > 50 µM, the GI50 (KM12 colon) was 3.39 µM and the TGI (KM12 colon) was 24.2 µM. It also gave a GI50 (LOX IMVI melanoma) of 2.44 µM, a TGI (LOX IMVI melanoma) of 17.1 µM and a GI50 (M14 melanoma) of 1.66 µM. For the same compound, the TGI (M14 melanoma) was 6.67 µM, the GI50 (MALME-3M melanoma) was 2.16 µM and the TGI (MALME-3M melanoma) was 9.12 µM. The GI50 (MCF7 breast) was 3.22 µM, the TGI (MCF7 breast) was 11.4 µM and the GI50 (MDA-MB-231 breast) was 1.16 µM. It also gave a TGI (MDA-MB-231 breast) of 5.25 µM, a GI50 (MDA-MB-435) of 1.48 µM and a TGI (MDA-MB-435) of 7.9 µM. For the same compound, the GI50 (MOLT-4 leukemia) was 0.752 µM, the TGI (MOLT-4 leukemia) was 5.46 µM and the GI50 (NCI-H226 lung) was 2.39 µM. For the same compound, the TGI (NCI-H226 lung) was 9.62 µM, the GI50 (NCI-H23 lung) was 3.18 µM and the TGI (NCI-H23 lung) was 10.6 µM. For the same compound, the GI50 (NCI-H460 lung) was 1.85 µM, the TGI (NCI-H460 lung) was 8.31 µM and the GI50 (NCI-H522 lung) was 1.45 µM. For the same compound, the TGI (NCI-H522 lung) was 4.89 µM, the GI50 (NCI/ADR-RES ovarian) was 9.43 µM and the TGI (NCI/ADR-RES ovarian) was 37.5 µM. The GI50 (OVCAR-3 ovarian) was 6.52 µM, the TGI (OVCAR-3 ovarian) was 13.7 µM and the GI50 (OVCAR-4 ovarian) was 1.09 µM. The TGI (OVCAR-4 ovarian) was 4 µM, the GI50 (OVCAR-5 ovarian) was 4.5 µM and the TGI (OVCAR-5 ovarian) was 11.8 µM. The GI50 (OVCAR-8 ovarian) was 0.818 µM, the TGI (OVCAR-8 ovarian) was 2.99 µM and the GI50 (PC-3 prostate) was 1.7 µM. It also gave a TGI (PC-3 prostate) of 9.26 µM, a GI50 (RPMI-8226 leukemia) of 4.57 µM and a TGI (RPMI-8226 leukemia) of 33 µM. For the same compound, the GI50 (RXF 393 renal) was 0.858 µM, the TGI (RXF 393 renal) was 2.48 µM and the GI50 (SF-268 CNS) was 1.62 µM. It also gave a TGI (SF-268 CNS) of 7.76 µM, a GI50 (SF-295 CNS) of 1.2 µM and a TGI (SF-295 CNS) of 4.14 µM. For the same compound, the GI50 (SF-539 CNS) was 1.28 µM, the TGI (SF-539 CNS) was 3.61 µM and the GI50 (SK-MEL-2 melanoma) was 1.41 µM. It also gave a TGI (SK-MEL-2 melanoma) of 4.02 µM, a GI50 (SK-MEL-28 melanoma) of 6.55 µM and a TGI (SK-MEL-28 melanoma) of 13.2 µM. For the same compound, the GI50 (SK-MEL-5 melanoma) was 6.06 µM, the TGI (SK-MEL-5 melanoma) was 14 µM and the GI50 (SK-OV-3 ovarian) was 3.3 µM. The TGI (SK-OV-3 ovarian) was 9.54 µM, the GI50 (SN12C renal) was 4.52 µM and the TGI (SN12C renal) was 11.5 µM. It also gave a GI50 (SNB-19 CNS) of 2.17 µM, a TGI (SNB-19 CNS) of 18.2 µM and a GI50 (SNB-75 CNS) of 0.828 µM. It also gave a TGI (SNB-75 CNS) of 2.4 µM, a GI50 (SR leukemia) of 1.43 µM and a TGI (SR leukemia) of 10.1 µM. The GI50 (SW-620 colon) was 0.521 µM, the TGI (SW-620 colon) was 2.73 µM and the GI50 (T-47D breast) was 5.15 µM. The TGI (T-47D breast) was 12.1 µM, the GI50 (TK-10 renal) was 2.01 µM and the TGI (TK-10 renal) was 7.35 µM. For the same compound, the GI50 (U251 CNS) was 0.797 µM, the TGI (U251 CNS) was 1.59 µM and the GI50 (UACC-257 melanoma) was 6.68 µM. The TGI (UACC-257 melanoma) was 16.7 µM, the GI50 (UACC-62 melanoma) was 2.54 µM and the TGI (UACC-62 melanoma) was 10.2 µM. It also gave a GI50 (UO-31 renal) of 3.39 µM and a TGI (UO-31 renal) of 11.2 µM.
